In patent publication US20210300943A1, “OGA INHIBITOR COMPOUNDS” (Janssen Pharmaceutica NV, priority 2018, published 2021):

Target: T1, recombinant human Meningioma Expressed Antigen 5 (MGEA5), also referred to as O-GlcNAcase (OGA) (Homo sapiens, UniProt O60502)
T1 construct: Full length OGA enzyme was purchased at OnGene (cat #TP322411); purchased OnGene (so in the source)
T1 sequence (O60502 1-916): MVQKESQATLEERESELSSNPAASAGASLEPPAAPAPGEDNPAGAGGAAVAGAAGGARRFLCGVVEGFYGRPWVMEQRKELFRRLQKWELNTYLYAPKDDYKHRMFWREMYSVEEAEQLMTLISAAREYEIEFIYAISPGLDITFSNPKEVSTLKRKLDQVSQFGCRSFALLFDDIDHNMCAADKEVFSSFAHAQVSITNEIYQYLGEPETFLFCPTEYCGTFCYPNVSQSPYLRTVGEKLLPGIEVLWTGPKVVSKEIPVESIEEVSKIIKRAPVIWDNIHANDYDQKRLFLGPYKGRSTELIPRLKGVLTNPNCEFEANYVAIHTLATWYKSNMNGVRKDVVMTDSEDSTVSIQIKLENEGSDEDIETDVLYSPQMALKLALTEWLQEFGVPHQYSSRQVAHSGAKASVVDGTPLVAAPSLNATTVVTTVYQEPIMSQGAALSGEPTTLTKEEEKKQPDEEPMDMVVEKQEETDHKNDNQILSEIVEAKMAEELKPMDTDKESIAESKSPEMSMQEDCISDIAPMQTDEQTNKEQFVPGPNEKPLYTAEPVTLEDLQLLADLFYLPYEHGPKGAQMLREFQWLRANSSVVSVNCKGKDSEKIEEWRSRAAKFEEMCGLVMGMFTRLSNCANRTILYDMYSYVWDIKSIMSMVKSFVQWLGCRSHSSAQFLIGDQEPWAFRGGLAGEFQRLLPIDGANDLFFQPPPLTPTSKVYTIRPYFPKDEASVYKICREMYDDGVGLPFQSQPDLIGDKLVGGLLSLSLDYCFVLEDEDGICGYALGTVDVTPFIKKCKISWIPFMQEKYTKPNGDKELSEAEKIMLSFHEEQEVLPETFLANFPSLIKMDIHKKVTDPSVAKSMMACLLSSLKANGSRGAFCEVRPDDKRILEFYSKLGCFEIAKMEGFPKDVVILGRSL
Assay: OGA biochemical assay (inhibition of FM-GlcNAc hydrolysis, fluorescence)
Details: for Emax: maximal effect, read-out: Enzymatic Emax (%); for IC50: read-out: Enzymatic hOGA, pIC50 (converted)
Outline: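 Full-length recombinant OGA (2 nM) pre-incubated with compound 60 min at room temperature, then FM-GlcNAc (100 µM final) added in citrate/phosphate buffer pH 7.2 with 0.005% Tween-20. After 6 h at room temperature, stopped with carbonate pH 11.0; fluorescein read at 485/538 nm; IC50 and Hill coefficient from curve fit.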

**Q.** For `Cc1cc([C@H]2CCCN(C(C)c3cnc4c(c3)OCCN4)C2)cc(C)n1` (single isomer, unassigned) [Product 135], which Emax is on record?
**A.** 101%

**Q.** What about the IC50 of the same compound?
**A.** 7.94 nM

**Q.** What does the source list for `Cc1cc(OC[C@H]2CCCN(C(C)c3nc4c(cc3F)OCCO4)C2)cc(C)n1` (single isomer, unassigned) [Product 155]?
**A.** Emax: 99%; IC50: 1.26 nM
